The values that follow come from patent US12384753B2, “17-beta-hydroxysteroid dehydrogenase type 13 inhibitors and methods of use thereof” (Enanta Pharmaceuticals, Inc., priority 2021, dated 2025).

As usually defined, the IC50 is the concentration that inhibits the measured activity by half.

Recombinant human HSD17B13, sequence (Q7Z5P4 20-300): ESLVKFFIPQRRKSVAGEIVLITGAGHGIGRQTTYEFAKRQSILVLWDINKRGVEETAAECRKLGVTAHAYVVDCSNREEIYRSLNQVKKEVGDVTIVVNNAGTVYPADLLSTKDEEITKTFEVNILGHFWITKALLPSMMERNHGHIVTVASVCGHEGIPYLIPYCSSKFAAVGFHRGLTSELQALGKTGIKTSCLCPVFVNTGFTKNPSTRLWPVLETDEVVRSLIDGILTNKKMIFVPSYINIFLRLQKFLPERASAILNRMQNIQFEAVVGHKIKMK

In the assay the target is Recombinant human HSD17B13 (Homo sapiens (Human), UniProt Q7Z5P4). The assay is described as follows: HSD17B13 rapid-fire mass spectrometry assay (RF/MS assay). As to conditions: inhibition of HSD17B13; LTB4 10 μM, NAD+ 0.5 mM, RT 3 h; IC50 ranges A-E. It counts as biochemical. In a few lines:
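Sf9-expressed human HSD17B13 (80 nM) with 10 μM LTB4 and 0.5 mM NAD+, incubated with compound (0–100 μM) for 3 h at RT in Tris pH 7.5/BSA/Tween-20. After formic acid quench, LTB4 conversion to 12-oxo-LTB4 measured by RapidFire MS/MS. IC50 from normalised residual activity, duplicates.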
As to `COc1cc(C(=O)O)ccc1NS(=O)(=O)c1csc(N2CCN(c3ccc(OC(F)(F)F)cc3)C(=O)C2)n1` [Example 266], the IC50 was in the range of 1000 to 100000 nM.
Turning to `COc1cc(C(=O)O)ccc1NS(=O)(=O)c1csc(N2CC(c3ccccc3)C2)n1` [Example 267], the IC50 lay in the range of 1000 to 100000 nM.
Take `COc1cc(C(=O)O)ccc1NS(=O)(=O)c1csc(N2CC=C(c3ccccc3)C2)n1` [Example 268]: the IC50 lay within 100 to 500 nM.
The result for `COc1cc(C(=O)O)ccc1NS(=O)(=O)c1csc(N2CCCC(c3ccccc3)C2)n1` (centres unmarked) [Example 269] reads 100 to 500 nM; that for `COc1cc(C(=O)O)ccc1NS(=O)(=O)c1csc(N2CCCCC2c2ccccc2)n1` (centres unmarked) [Example 270], 100 to 500 nM; that for `COc1cc(C(=O)O)ccc1NS(=O)(=O)c1csc(N2CCN(c3ccc(OC(F)(F)F)cc3)CC2)n1` [Example 271], 100 to 500 nM.
The result for `COc1cc(C(=O)O)ccc1NS(=O)(=O)c1csc(N2CCN(c3ccc(C(F)(F)F)cc3)CC2)n1` [Example 272] reads 100 to 500 nM; that for `COc1cc(C(=O)O)ccc1NS(=O)(=O)c1csc(N2CCCC(NCc3ccccc3)C2)n1` (centres unmarked) [Example 273], 1000 to 100000 nM; that for `COc1cc(C(=O)O)ccc1NS(=O)(=O)c1csc(N2CCCC(Cc3ccc(C)cc3)C2)n1` (centres unmarked) [Example 274], 500 to 1000 nM.
With `COc1ccc(CC2CCCN(c3nc(S(=O)(=O)Nc4ccc(C(=O)O)cc4OC)cs3)C2)cc1` (centres unmarked) [Example 275] the figure was 1000 to 100000 nM; with `COc1cc(C(=O)O)ccc1NS(=O)(=O)c1csc(N2CCCC(Oc3ccccc3)C2)n1` (centres unmarked) [Example 276], 1000 to 100000 nM.
For `COc1cc(C(=O)O)ccc1NS(=O)(=O)c1csc(N2CCCC(CCc3ccccc3)C2)n1` (centres unmarked) [Example 277], the IC50 was in the range of 1000 to 100000 nM.
For `COc1cc(C(=O)O)ccc1NS(=O)(=O)c1csc(N2CCN(c3ccc(C)cc3)CC2)n1` [Example 278], the IC50 was in the range of 1000 to 100000 nM.
The result for `COc1cc(C(=O)O)ccc1NS(=O)(=O)c1csc(N2CCC[C@@H](Cc3ccc(F)cc3)C2)n1` [Example 279] reads 1000 to 100000 nM; that for `COc1cc(C(=O)O)ccc1NS(=O)(=O)c1csc(-c2ccc(-c3ccc(OC(F)(F)F)cc3)cc2)n1` [Example 280], 100 to 500 nM.
With `COc1cc(C(=O)O)ccc1NS(=O)(=O)c1csc(-c2ccc(C3CCCCC3)cc2)n1` [Example 281, 4-((2-(4-cyclohexylphenyl)thiazole)-4-sulfonamido)-3-methoxybenzoic acid] the figure was 100 to 500 nM; with `COc1cc(C(=O)O)ccc1NS(=O)(=O)c1csc(N2CCN(c3cccc(OC(F)(F)F)c3)CC2)n1` [Example 282], 100 to 500 nM; with `COc1cc(C(=O)O)ccc1NS(=O)(=O)c1csc(N2CCCC(Cc3ccc(C(F)(F)F)cc3)C2)n1` (centres unmarked) [Example 283], 100 to 500 nM.
The result for `COc1cc(C(=O)O)ccc1NS(=O)(=O)c1csc(-c2ccc(N3CCCCC3)cc2)n1` [Example 284] reads 100 to 500 nM; that for `COc1cc(C(=O)O)ccc1NS(=O)(=O)c1csc(N2CCN(c3ccc(Br)cc3)CC2)n1` [Example 285], 1000 to 100000 nM.
As to `COc1cc(C(=O)O)ccc1NS(=O)(=O)c1csc(N2CCCC(C(=O)c3ccccc3)C2)n1` (centres unmarked) [Example 286], the IC50 was 500 to 1000 nM.
With `COc1cc(C(=O)O)ccc1NS(=O)(=O)c1csc(N2CCN(C(=O)c3ccccc3)CC2)n1` [Example 287] the figure was 1000 to 100000 nM.
The result for `COc1cc(C(=O)O)ccc1NS(=O)(=O)c1csc(N2CCN(c3ccc(-c4ccccc4)cc3)CC2)n1` [Example 288] reads 100 to 500 nM; that for `COc1cc(C(=O)O)ccc1NS(=O)(=O)c1csc(N2C[C@@H]3C[C@H]2CN3c2ccccc2)n1` [Example 289], 500 to 1000 nM; that for `COc1cc(C(=O)O)ccc1NS(=O)(=O)c1csc(N2CCN(S(=O)(=O)c3ccc(C)cc3)CC2)n1` [Example 290], 1000 to 100000 nM.
With `COc1cc(C(=O)O)ccc1NS(=O)(=O)c1csc(N2CCN(c3ccc(N(C)C)cc3)CC2)n1` [Example 291] the figure was 1000 to 100000 nM; with `COc1cc(C(=O)O)ccc1NS(=O)(=O)c1csc(N2CCCC(c3ccc(F)cc3)C2)n1` (centres unmarked) [Example 292], 1000 to 100000 nM; with `COc1cc(C(=O)O)ccc1NS(=O)(=O)c1csc(N2CCCC(c3ccc(C(F)(F)F)cc3)C2)n1` (centres unmarked) [Example 293], 1000 to 100000 nM.
Take `COc1cc(C(=O)O)ccc1NS(=O)(=O)c1csc(N2CCN(C(=O)OCc3ccccc3)CC2)n1` [Example 294]: the half-maximal inhibitory concentration (IC50) lay within 100 to 500 nM.
With `COc1cc(C(=O)O)ccc1NS(=O)(=O)c1csc(N2CCCC(C(C)c3ccccc3)C2)n1` (centres unmarked) [Example 295] the figure was 1000 to 100000 nM.
With `COc1cc(C(=O)O)ccc1NS(=O)(=O)c1csc(-c2ccc(-c3ccc(F)cc3)cc2)n1` [Example 296] the figure was 1000 to 100000 nM; with `COc1cc(C(=O)O)ccc1NS(=O)(=O)c1csc(-c2ccc(C(=O)c3ccccc3)cc2)n1` [Example 297], 500 to 1000 nM.
The result for `COc1cc(C(=O)O)ccc1NS(=O)(=O)c1ccc(-c2csc(C)n2)cc1` [Example 298] reads 1000 to 100000 nM; that for `COc1cc(C(=O)O)ccc1NS(=O)(=O)c1csc(-c2ccc(-c3ccccc3)nc2)n1` [Example 299], 1000 to 100000 nM; that for `COc1cc(C(=O)O)ccc1NS(=O)(=O)c1csc(-c2ccc(C3CCCC3)cc2)n1` [Example 300], 500 to 1000 nM.
As to `COc1cc(C(=O)O)ccc1NS(=O)(=O)c1csc(-c2ccc(-c3ccccc3)cc2)n1` [Example 301], the IC50 fell in the range of 500 to 1000 nM.
With `COc1cc(C(=O)O)ccc1NS(=O)(=O)c1csc(-c2ccc(-c3ccccc3)c(F)c2)n1` [Example 302] the figure was 100 to 500 nM; with `COc1cc(C(=O)O)ccc1NS(=O)(=O)c1csc(-c2ccc(N3CCOCC3)cc2)n1` [Example 303], 1000 to 100000 nM; with `COc1cc(C(=O)O)ccc1NS(=O)(=O)c1csc(-c2ccc(-c3ccccc3)cc2F)n1` [Example 304], 500 to 1000 nM.
For `COc1cc(C(=O)O)ccc1NS(=O)(=O)c1csc(N2CCN(C(=O)OC(C)(C)C)CC2)n1` [Example 305, 4-((2-(4-(tert-butoxycarbonyl)piperazin-1-yl)thiazole)-4-sulfonamido)-3-methoxybenzoic acid], the IC50 lay within 1000 to 100000 nM.
Consider `COc1cc(C(=O)O)ccc1NS(=O)(=O)c1nc(-c2ccc(F)cc2)sc1-c1ccccc1` [Example 306], for which the IC50 was in the range of 1000 to 100000 nM.
On to `COc1cc(C(=O)O)ccc1NS(=O)(=O)c1csc(N2CCN(C(=O)OCC3CCCCC3)CC2)n1` [Example 307, 4-((2-(4-((cyclohexylmethoxy)carbonyl)piperazin-1-yl)thiazole)-4-sulfonamido)-3-methoxybenzoic acid], for which the IC50 is 500 to 1000 nM.
For `COc1cc(C(=O)O)ccc1NS(=O)(=O)c1csc(N2CCN(Cc3ccc(OC(F)(F)F)cc3)CC2)n1` [Example 308], the IC50 fell in the range of 100 to 500 nM.
With `COc1cc(C(=O)O)ccc1NS(=O)(=O)c1csc(N2CCN(C(=O)OC(C)C)CC2)n1` [Example 309] the figure was 1000 to 100000 nM.
For the molecule `COc1cc(C(=O)O)ccc1NS(=O)(=O)N1CCC(c2ccccc2)CC1` [Example 310], the concentration for half-maximal inhibition (IC50) lay in the range of 1000 to 100000 nM.
The result for `COc1cc(C(=O)O)ccc1NS(=O)(=O)N1CCC(c2ccccn2)CC1` [Example 311] reads 1000 to 100000 nM; that for `COc1cc(C(=O)O)ccc1NS(=O)(=O)N1CCN(c2ccccc2)CC1` [Example 312], 1000 to 100000 nM.
